Measurements: EP4603105A1, “PHARMACEUTICAL COMPOSITION CONTAINING CYCLIC COMPOUND HAVING SELECTIVE KRAS INHIBITORY EFFECT AGAINST HRAS AND NRAS” (CHUGAI SEIYAKU KABUSHIKI KAISHA, priority 2022, dated 2024)

Key:
[1] = system: human lung cancer strain NCI-H441; format: cell-based
In short: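 Readout: […] after the ATP-based reagent. Compound: serial dilutions in dimethyl sulfoxide.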

[2] = biological target: GDP-bound NRAS wild-type protein (Homo sapiens, UniProt P01111); assay: Binding to NRAS by surface plasmon resonance (SPR), KD and KD ratio to KRAS; settings: ratio of the KD value with respect to GDP-bound NRAS wild-type protein to the KD value with respect to KRAS
In short: (§1)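 GDP-bound biotin-Avi RAS captured at ~100–300 RU, 30°C, pH 7.4 HBS containing 10 µM GDP, 10 mM MgCl2, 1 mM DTT, 0.01% Tween 20 and 4% DMSO. KD by 1:1 fitting.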

HRAS wild-type protein = HRAS wild-type protein (Homo sapiens, UniProt P01112); assay: Binding to HRAS by surface plasmon resonance (SPR), KD and KD ratio to KRAS; settings: ratio of the KD value with respect to HRAS wild-type protein to the KD value with respect to KRAS
In short: as §1

HRAS wild-type protein, sequence (P01112 whole entry): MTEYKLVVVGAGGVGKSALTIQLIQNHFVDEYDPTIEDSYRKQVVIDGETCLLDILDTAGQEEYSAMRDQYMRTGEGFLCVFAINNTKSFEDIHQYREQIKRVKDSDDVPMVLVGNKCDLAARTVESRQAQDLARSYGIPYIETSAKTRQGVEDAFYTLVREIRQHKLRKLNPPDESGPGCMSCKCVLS
GDP-bound NRAS wild-type protein, sequence (P01111 whole entry): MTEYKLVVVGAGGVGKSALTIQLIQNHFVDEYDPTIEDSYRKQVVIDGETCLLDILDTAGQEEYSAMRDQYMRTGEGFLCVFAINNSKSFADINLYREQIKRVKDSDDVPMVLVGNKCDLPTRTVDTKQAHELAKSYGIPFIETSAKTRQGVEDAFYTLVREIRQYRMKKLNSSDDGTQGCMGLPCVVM

| Compound | IC50 [1] | NRAS /KRAS [2] | HRAS /KRAS (HRAS wild-type protein) |
| --- | --- | --- | --- |
| CCO[C@@H]1C[C@H]2C(=O)NC3(CC(C)(C)C3)C(=O)N(C)[C@@H](C(CC)CC)C(=O)N(C)[C@H](C(=O)N(C)C)CC(=O)N(C)[C@@H](CC(C)C)C(=O)N[C@@H]([C@@H](C)CC)C(=O)N(C)CC(=O)N(C)[C@H]3C/C=C\CCN(C3=O)[C@@H](Cc3ccc(C(F)(F)F)cc3)C(=O)N(C)CC(=O)N[C@@H](CCc3ccc(Cl)c(Cl)c3)C(=O)N2C1 [PP2176] | 52.9 nM | AA (a compound having 20 or more is denoted as AA) | A (a compound having 10 or more and less than 20 is denoted as A) |
| CCO[C@@H]1C[C@H]2C(=O)NC3(CC(C)(C)C3)C(=O)N(C)[C@@H](C(CC)CC)C(=O)N(C)[C@H](C(=O)N3CCCC3)CC(=O)N(C)[C@@H](C)C(=O)N[C@@H]([C@@H](C)CC)C(=O)N(C)CC(=O)N(C)[C@H]3C/C=C\CCN(C3=O)[C@@H](Cc3ccc(C(F)(F)F)cc3)C(=O)N(C)CC(=O)N[C@@H](CCc3ccc(Cl)c(Cl)c3)C(=O)N2C1 [PP2178] | 35.9 nM | AA (a compound having 20 or more is denoted as AA) | A (a compound having 10 or more and less than 20 is denoted as A) |
| CCO[C@@H]1C[C@H]2C(=O)NC3(CC(C)(C)C3)C(=O)N(C)[C@@H](C(CC)CC)C(=O)N(C)[C@H](C(=O)N(C)C)CC(=O)N(C)[C@@H](CC3CCC3)C(=O)N[C@@H]([C@@H](C)CC)C(=O)N(C)CC(=O)N(C)[C@H]3C/C=C\CCN(C3=O)[C@@H](Cc3ccc(C(F)(F)F)cc3)C(=O)N(C)CC(=O)N[C@@H](CCc3ccc(Cl)c(Cl)c3)C(=O)N2C1 [PP2180] | 27.8 nM | AA (a compound having 20 or more is denoted as AA) | A (a compound having 10 or more and less than 20 is denoted as A) |
| CCO[C@@H]1C[C@H]2C(=O)NC3(CC(C)(C)C3)C(=O)N(C)[C@@H](C(CC)CC)C(=O)N(C)[C@H](C(=O)N(C)C)CC(=O)N(C)[C@@H](C(C)C)C(=O)N[C@@H]([C@@H](C)CC)C(=O)N(C)CC(=O)N(C)[C@H]3C/C=C\CCN(C3=O)[C@@H](Cc3ccc(C(F)(F)F)cc3)C(=O)N(C)CC(=O)N[C@@H](CCc3ccc(Cl)c(Cl)c3)C(=O)N2C1 [PP2181] | 40.3 nM | AA (a compound having 20 or more is denoted as AA) | A (a compound having 10 or more and less than 20 is denoted as A) |
| CCC[C@H]1C(=O)N[C@@H]([C@@H](C)CC)C(=O)N(C)CC(=O)N(C)[C@H]2C/C=C\CCN(C2=O)[C@@H](Cc2ccc(C)cc2)C(=O)N(C)CC(=O)N[C@@H](CCc2ccc(Cl)c(Cl)c2)C(=O)N2C[C@H](OCC)C[C@H]2C(=O)NC2(CC(C)(C)C2)C(=O)N(C)[C@@H](C(CC)CC)C(=O)N(C)[C@H](C(=O)N(C)C)CC(=O)N1C [PP2184] | 29.2 nM | AA (a compound having 20 or more is denoted as AA) | A (a compound having 10 or more and less than 20 is denoted as A) |
| CCO[C@@H]1C[C@H]2C(=O)NC3(CC(C)(C)C3)C(=O)N(C)[C@@H](C(CC)CC)C(=O)N(C)[C@H](C(=O)N(C)C)CC(=O)N(C)[C@@H](CC(C)C)C(=O)N[C@@H]([C@@H](C)CC)C(=O)N(C)CC(=O)N(C)[C@H]3C/C=C\CCN(C3=O)[C@@H](Cc3ccc(C)cc3)C(=O)N(C)CC(=O)N[C@@H](CCc3ccc(Cl)c(Cl)c3)C(=O)N2C1 [PP2185] | 36.1 nM | AA (a compound having 20 or more is denoted as AA) | A (a compound having 10 or more and less than 20 is denoted as A) |
| CCO[C@@H]1C[C@H]2C(=O)NC3(CC(C)(C)C3)C(=O)N(C)[C@@H](C(CC)CC)C(=O)N(C)[C@H](C(=O)N(C)C)CC(=O)N(C)[C@@H](C)C(=O)N[C@@H]([C@@H](C)CC)C(=O)N(C)CC(=O)N(C)[C@H]3C/C=C\CCN(C3=O)[C@@H](Cc3ccc(C)cc3)C(=O)N(C)CC(=O)N[C@@H](CCc3ccc(Cl)c(Cl)c3)C(=O)N2C1 [PP2186] | 33.7 nM | AA (a compound having 20 or more is denoted as AA) | A (a compound having 10 or more and less than 20 is denoted as A) |
| CCO[C@@H]1C[C@H]2C(=O)NC3(CC(C)(C)C3)C(=O)N(C)[C@@H](C(CC)CC)C(=O)N(C)[C@H](C(=O)N3CCCC3)CC(=O)N(C)[C@@H](C)C(=O)N[C@@H]([C@@H](C)CC)C(=O)N(C)CC(=O)N(C)[C@H]3C/C=C\CCN(C3=O)[C@@H](Cc3ccc(C)cc3)C(=O)N(C)CC(=O)N[C@@H](CCc3ccc(Cl)c(Cl)c3)C(=O)N2C1 [PP2187] | 31.4 nM | AA (a compound having 20 or more is denoted as AA) | A (a compound having 10 or more and less than 20 is denoted as A) |
| CCO[C@@H]1C[C@H]2C(=O)NC3(CC(C)(C)C3)C(=O)N(C)[C@@H](C(CC)CC)C(=O)N(C)[C@H](C(=O)N(C)C)CC(=O)N(C)[C@@H](CC)C(=O)N[C@@H]([C@@H](C)CC)C(=O)N(C)CC(=O)N(C)[C@H]3C/C=C\CCN(C3=O)[C@@H](Cc3ccc(C)cc3)C(=O)N(C)CC(=O)N[C@@H](CCc3ccc(Cl)c(Cl)c3)C(=O)N2C1 [PP2188] | 26.7 nM | AA (a compound having 20 or more is denoted as AA) | A (a compound having 10 or more and less than 20 is denoted as A) |
| CCO[C@@H]1C[C@H]2C(=O)NC3(CCCC3)C(=O)N(C)[C@@H](C3CCCC3)C(=O)N(C)[C@H](C(=O)N(C)C)CC(=O)N(C)[C@@H](CC(C)C)C(=O)N[C@@H]([C@@H](C)CC)C(=O)N(C)CC(=O)N(C)[C@H]3C/C=C\CCN(C3=O)[C@@H](Cc3ccc(C)cc3)C(=O)N(C)CC(=O)N[C@@H](CCc3ccc(C(F)(F)F)c(Cl)c3)C(=O)N2C1 [PP2195] | 7.8 nM | A (a compound having 10 or more and less than 20 is denoted as A) | A (a compound having 10 or more and less than 20 is denoted as A) |
| CCC[C@H]1C(=O)N[C@@H](C2CCCC2)C(=O)N(C)CC(=O)N(C)[C@H]2C/C=C\CCN(C2=O)[C@@H](Cc2ccc(C)cc2)C(=O)N(C)CC(=O)N[C@@H](CCc2ccc(C(F)(F)F)c(Cl)c2)C(=O)N2C[C@H](OCC)C[C@H]2C(=O)NC2(CC(C)(C)C2)C(=O)N(C)[C@@H](CC(C)(C)C)C(=O)N(C)[C@H](C(=O)N(C)C)CC(=O)N1C [PP2196] | 6.6 nM | A (a compound having 10 or more and less than 20 is denoted as A) | B (a compound having 3 or more and less than 10 is denoted as B) |
| CCO[C@@H]1C[C@H]2C(=O)NC3(CCCC3)C(=O)N(C)[C@@H](C3CCCC3)C(=O)N(C)[C@H](C(=O)N(C)C)CC(=O)N(C)[C@@H](CC(C)C)C(=O)N[C@@H]([C@@H](C)CC)C(=O)N(C)CC(=O)N(C)[C@H]3C/C=C\CCN(C3=O)[C@@H](Cc3ccc(C)cc3)C(=O)N(C)CC(=O)N[C@@H](CCc3ccc(C(F)(F)F)c(OC)c3)C(=O)N2C1 [PP2197] | 4.6 nM | A (a compound having 10 or more and less than 20 is denoted as A) | B (a compound having 3 or more and less than 10 is denoted as B) |
| CCC[C@H]1C(=O)N[C@@H](C2CCCC2)C(=O)N(C)CC(=O)N(C)[C@H]2C/C=C\CCN(C2=O)[C@@H](Cc2ccc(C)cc2)C(=O)N(C)CC(=O)N[C@@H](CCc2ccc(C(F)(F)F)c(Cl)c2)C(=O)N2C[C@H](OCC)C[C@H]2C(=O)NC2(CC(C)(C)C2)C(=O)N(C)[C@@H](C2CCCC2)C(=O)N(C)[C@H](C(=O)N(C)C)CC(=O)N1C [PP2198] | 13.8 nM | A (a compound having 10 or more and less than 20 is denoted as A) | A (a compound having 10 or more and less than 20 is denoted as A) |
| CCC[C@H]1C(=O)N[C@@H](C(CC)CC)C(=O)N(C)CC(=O)N(C)[C@H]2C/C=C\CCN(C2=O)[C@@H](Cc2ccc(C)cc2)C(=O)N(C)CC(=O)N[C@@H](CCc2ccc(C(F)(F)F)c(Cl)c2)C(=O)N2C[C@H](OCC)C[C@H]2C(=O)NC2(CC(C)(C)C2)C(=O)N(C)[C@@H](CC(C)(C)C)C(=O)N(C)[C@H](C(=O)N(C)C)CC(=O)N1C [PP2207] | 25.8 nM | A (a compound having 10 or more and less than 20 is denoted as A) | A (a compound having 10 or more and less than 20 is denoted as A) |
| CCC[C@@H]1C[C@H]2C(=O)NC3(CC(C)(C)C3)C(=O)N(C)[C@@H](C3CCCC3)C(=O)N(C)[C@H](C(=O)N(C)C)CC(=O)N(C)[C@@H](CC)C(=O)N[C@@H]([C@@H](C)CC)C(=O)N(C)CC(=O)N(C)[C@H]3C/C=C\CCN(C3=O)[C@@H](Cc3ccc(C)cc3)C(=O)N(C)CC(=O)N[C@@H](CCc3cc(F)c(C(F)(F)F)c(F)c3)C(=O)N2C1 [PP2208] | 17.8 nM | A (a compound having 10 or more and less than 20 is denoted as A) | A (a compound having 10 or more and less than 20 is denoted as A) |
| CCC[C@H]1C(=O)N[C@@H](C(CC)CC)C(=O)N(C)CC(=O)N(C)[C@H]2C/C=C\CCN(C2=O)[C@@H](Cc2ccc(C)cc2)C(=O)N(C)CC(=O)N[C@@H](CCc2ccc(C(F)(F)F)c(Cl)c2)C(=O)N2C[C@H](OCC)C[C@H]2C(=O)NC2(CC(C)(C)C2)C(=O)N(C)[C@@H](C2CCCC2)C(=O)N(C)[C@H](C(=O)N(C)C)CC(=O)N1C [PP2209] | 37 nM | A (a compound having 10 or more and less than 20 is denoted as A) | A (a compound having 10 or more and less than 20 is denoted as A) |
| CCC[C@H]1C(=O)N[C@@H]([C@@H](C)CC)C(=O)N(C)CC(=O)N(C)[C@H]2C/C=C\CCN(C2=O)[C@@H](Cc2ccc(C)cc2)C(=O)N(C)CC(=O)N[C@@H](CCc2ccc(C(F)(F)F)c(Cl)c2)C(=O)N2C[C@H](CC)C[C@H]2C(=O)NC2(CC(C)(C)C2)C(=O)N(C)[C@@H](C2CCCC2)C(=O)N(C)[C@H](C(=O)N(C)C)CC(=O)N1C [PP2212] | 23.5 nM | A (a compound having 10 or more and less than 20 is denoted as A) | B (a compound having 3 or more and less than 10 is denoted as B) |
